Reference: ChEMBL document CHEMBL1240358, “Activity of a new antipseudomonal cephalosporin, CXA-101 (FR264205), against carbapenem-resistant and multidrug-resistant Pseudomonas aeruginosa clinical strains” (2010)
Values after ≈ are worked out from the molar mass of the structure shown.

How the values were obtained:
Format in all cases: functional
Pseudomonas aeruginosa [1] = assay: Antibacterial activity against ticarcillin-resistant Pseudomonas aeruginosa by broth microdilution method
Pseudomonas aeruginosa [2] = assay: Antibacterial activity against piperacillin- and tazobactam-susceptible Pseudomonas aeruginosa by broth microdilution method
Pseudomonas aeruginosa [3] = assay: Antibacterial activity against multidrug-resistant Pseudomonas aeruginosa by broth microdilution method
Pseudomonas aeruginosa [4] = assay: Antibacterial activity against cefepime-susceptible Pseudomonas aeruginosa by broth microdilution method
Pseudomonas aeruginosa [5] = assay: Antibacterial activity against multidrug-resistant Pseudomonas aeruginosa isolated from patient with cystic fibrosis
Pseudomonas aeruginosa [6] = assay: Antibacterial activity against tobramycin-resistant Pseudomonas aeruginosa by broth microdilution method
Pseudomonas aeruginosa [7] = assay: Antibacterial activity against ciprofloxacin -susceptible Pseudomonas aeruginosa by broth microdilution method
Pseudomonas aeruginosa [8] = assay: Antibacterial activity against gentamicin-susceptible Pseudomonas aeruginosa by broth microdilution method
Pseudomonas aeruginosa [9] = assay: Antibacterial activity against ciprofloxacin-resistant Pseudomonas aeruginosa by broth microdilution method
Pseudomonas aeruginosa [10] = assay: Antibacterial activity against carbapenem-resistant Pseudomonas aeruginosa isolate 3C1 VAL6 by broth microdilution method
Pseudomonas aeruginosa [11] = assay: Antibacterial activity against carbapenem-resistant Pseudomonas aeruginosa isolate 3D2 GM2 harboring acquired beta-lactamase BEL-3 by broth microdilution method
Pseudomonas aeruginosa [12] = assay: Antibacterial activity against gentamicin-resistant Pseudomonas aeruginosa by broth microdilution method
Pseudomonas aeruginosa [13] = assay: Antibacterial activity against carbapenem-resistant Pseudomonas aeruginosa isolate 1C3 PTOL1 harboring acquired beta-lactamase OXA-17 by broth microdilution method
Pseudomonas aeruginosa [14] = assay: Antibacterial activity against carbapenem-resistant Pseudomonas aeruginosa isolate 1E2 PpA1 harboring acquired beta-lactamase OXA-144 by broth microdilution method
Pseudomonas aeruginosa [15] = assay: Antibacterial activity against Pseudomonas aeruginosa PAO1 by broth microdilution method
Pseudomonas aeruginosa [16] = assay: Antibacterial activity against Pseudomonas aeruginosa isolated from intensive care unit patient by broth microdilution method
Pseudomonas aeruginosa [17] = assay: Antibacterial activity against Pseudomonas aeruginosa isolated from non-intensive care unit patient by broth microdilution method
Pseudomonas aeruginosa [18] = assay: Antibacterial activity against piperacillin- and tazobactam-resistant Pseudomonas aeruginosa by broth microdilution method
Pseudomonas aeruginosa [19] = assay: Antibacterial activity against carbapenem-resistant Pseudomonas aeruginosa isolate 1D5 SA1 harboring acquired beta-lactamase VIM-2 by broth microdilution method
Pseudomonas aeruginosa [20] = assay: Antibacterial activity against ceftazidime-resistant Pseudomonas aeruginosa by broth microdilution method
Pseudomonas aeruginosa [21] = assay: Antibacterial activity against carbapenem-resistant Pseudomonas aeruginosa isolate 1E1 PpA1 harboring acquired beta-lactamase OXA-144 by broth microdilution method
Pseudomonas aeruginosa [22] = assay: Antibacterial activity against carbapenem-resistant Pseudomonas aeruginosa isolate 3C8 GM1 harboring acquired beta-lactamase OXA-144 by broth microdilution method
Pseudomonas aeruginosa [23] = assay: Antibacterial activity against Pseudomonas aeruginosa PAO1 harboring acquired beta-lactamase OXA-144 by broth microdilution method
Pseudomonas aeruginosa [24] = assay: Antibacterial activity against piperacillin-susceptible Pseudomonas aeruginosa by broth microdilution method
Pseudomonas aeruginosa [25] = assay: Antibacterial activity against tobramycin-susceptible Pseudomonas aeruginosa by broth microdilution method
Pseudomonas aeruginosa [26] = assay: Antibacterial activity against aztreonam-susceptible Pseudomonas aeruginosa by broth microdilution method
Pseudomonas aeruginosa [27] = assay: Antibacterial activity against Pseudomonas aeruginosa harboring low level of beta lactamase AmpC by broth microdilution method
Pseudomonas aeruginosa [28] = assay: Antibacterial activity against amikacin-resistant Pseudomonas aeruginosa by broth microdilution method
Pseudomonas aeruginosa [29] = assay: Antibacterial activity against non-multidrug-resistant Pseudomonas aeruginosa by broth microdilution method
Pseudomonas aeruginosa [30] = assay: Antibacterial activity against aztreonam-resistant Pseudomonas aeruginosa by broth microdilution method
Pseudomonas aeruginosa [31] = assay: Antibacterial activity against cephalosporin-resistant Pseudomonas aeruginosa clinical isolates
Pseudomonas aeruginosa [32] = assay: Antibacterial activity against piperacillin-resistant Pseudomonas aeruginosa by broth microdilution method
Pseudomonas aeruginosa [33] = assay: Antibacterial activity against imipenem-susceptible Pseudomonas aeruginosa by broth microdilution method
Pseudomonas aeruginosa [34] = assay: Antibacterial activity against cefepime-resistant Pseudomonas aeruginosa by broth microdilution method
Pseudomonas aeruginosa [35] = assay: Antibacterial activity against carbapenem-resistant Pseudomonas aeruginosa isolate 1C2 PTOL1 harboring beta-lactamase OXA-17 by broth microdilution method
Pseudomonas aeruginosa [36] = assay: Antibacterial activity against ceftazidime-susceptible Pseudomonas aeruginosa by broth microdilution method
Pseudomonas aeruginosa [37] = assay: Antibacterial activity against Pseudomonas aeruginosa by broth microdilution method
Pseudomonas aeruginosa [38] = assay: Antibacterial activity against Pseudomonas aeruginosa PAO1 harboring acquired beta-lactamase OXA-2 by broth microdilution method
Pseudomonas aeruginosa [39] = assay: Antibacterial activity against carbapenem-resistant Pseudomonas aeruginosa isolate 1E3 PpA2 harboring acquired beta-lactamase OXA-101 by broth microdilution method
Pseudomonas aeruginosa [40] = assay: Antibacterial activity against imipenem-resistant Pseudomonas aeruginosa by broth microdilution method
Pseudomonas aeruginosa [41] = assay: Antibacterial activity against ticarcillin-susceptible Pseudomonas aeruginosa by broth microdilution method
Pseudomonas aeruginosa [42] = assay: Antibacterial activity against carbapenem-resistant Pseudomonas aeruginosa isolate 1B2 RCA2 harboring acquired beta-lactamase PER-1 by broth microdilution method
Pseudomonas aeruginosa [43] = assay: Antibacterial activity against Pseudomonas aeruginosa harboring high level of beta lactamase AmpC by broth microdilution method
Pseudomonas aeruginosa [44] = assay: Antibacterial activity against carbapenem-resistant Pseudomonas aeruginosa isolate 3C9 GM1 harboring acquired beta-lactamase OXA-144 by broth microdilution method
Pseudomonas aeruginosa [45] = assay: Antibacterial activity against amikacin-susceptible Pseudomonas aeruginosa by broth microdilution method
Pseudomonas aeruginosa [46] = assay: Antibacterial activity against meropenem-resistant Pseudomonas aeruginosa by broth microdilution method
Pseudomonas aeruginosa [47] = assay: Antibacterial activity against meropenem-susceptible Pseudomonas aeruginosa by broth microdilution method

## Cn1c(N)c(NC(=O)NCCN)c[n+]1CC1=C(C(=O)O)N2C(=O)[C@@H](NC(=O)/C(=N\OC(C)(C)C(=O)[O-])c3nsc(N)n3)[C@H]2SC1 [CEFTOLOZANE]
Pseudomonas aeruginosa [1]
  MIC50: 1 µg/mL (≈ 1.5 µM)
  MIC90: 8 µg/mL (≈ 12 µM)
Pseudomonas aeruginosa [2]
  MIC50: 1 µg/mL
  MIC90: 2 µg/mL
Pseudomonas aeruginosa [3]
  MIC50: 1 µg/mL (≈ 1.5 µM)
  MIC90: 4 µg/mL (≈ 6 µM)
Pseudomonas aeruginosa [4]
  MIC50: 0.5 µg/mL (≈ 0.75 µM)
  MIC90: 2 µg/mL (≈ 3 µM)
Pseudomonas aeruginosa [5]
  MIC: > 8 µg/mL
Pseudomonas aeruginosa [6]
  MIC50: 1 µg/mL (≈ 1.5 µM)
  MIC90: 4 µg/mL (≈ 6 µM)
Pseudomonas aeruginosa [7]
  MIC50: 1 µg/mL (≈ 1.5 µM)
  MIC90: 2 µg/mL (≈ 3 µM)
Pseudomonas aeruginosa [8]
  MIC50: 1 µg/mL (≈ 1.5 µM)
  MIC90: 2 µg/mL (≈ 3 µM)
Pseudomonas aeruginosa [9]
  MIC50: 1 µg/mL (≈ 1.5 µM)
  MIC90: 4 µg/mL (≈ 6 µM)
Pseudomonas aeruginosa [10]
  MIC: 64 µg/mL (≈ 96 µM)
Pseudomonas aeruginosa [11]
  MIC: 32 µg/mL (≈ 48 µM)
Pseudomonas aeruginosa [12]
  MIC50: 1 µg/mL (≈ 1.5 µM)
  MIC90: 4 µg/mL (≈ 6 µM)
Pseudomonas aeruginosa [13]
  MIC: 64 µg/mL (≈ 96 µM)
Pseudomonas aeruginosa [14]
  MIC: 64 µg/mL (≈ 96 µM)
Pseudomonas aeruginosa [15]
  MIC: 0.25 µg/mL (≈ 0.375 µM)
Pseudomonas aeruginosa [16]
  MIC50: 1 µg/mL (≈ 1.5 µM)
  MIC90: 4 µg/mL (≈ 6 µM)
Pseudomonas aeruginosa [17]
  MIC50: 1 µg/mL (≈ 1.5 µM)
  MIC90: 2 µg/mL (≈ 3 µM)
Pseudomonas aeruginosa [18]
  MIC50: 1 µg/mL
  MIC90: 4 µg/mL
Pseudomonas aeruginosa [19]
  MIC: 64 µg/mL (≈ 96 µM)
Pseudomonas aeruginosa [20]
  MIC50: 1 µg/mL (≈ 1.5 µM)
  MIC90: 4 µg/mL (≈ 6 µM)
Pseudomonas aeruginosa [21]
  MIC: 32 µg/mL (≈ 48 µM)
Pseudomonas aeruginosa [22]
  MIC: 32 µg/mL (≈ 48 µM)
Pseudomonas aeruginosa [23]
  MIC: 32 µg/mL (≈ 48 µM)
Pseudomonas aeruginosa [24]
  MIC50: 1 µg/mL (≈ 1.5 µM)
  MIC90: 2 µg/mL (≈ 3 µM)
Pseudomonas aeruginosa [25]
  MIC50: 1 µg/mL (≈ 1.5 µM)
  MIC90: 2 µg/mL (≈ 3 µM)
Pseudomonas aeruginosa [26]
  MIC50: 1 µg/mL (≈ 1.5 µM)
  MIC90: 2 µg/mL (≈ 3 µM)
Pseudomonas aeruginosa [27]
  MIC50: 1 µg/mL (≈ 1.5 µM)
  MIC90: 2 µg/mL (≈ 3 µM)
Pseudomonas aeruginosa [28]
  MIC50: 1 µg/mL (≈ 1.5 µM)
  MIC90: 64 µg/mL (≈ 96 µM)
Pseudomonas aeruginosa [29]
  MIC50: 1 µg/mL (≈ 1.5 µM)
  MIC90: 2 µg/mL (≈ 3 µM)
Pseudomonas aeruginosa [30]
  MIC50: 1 µg/mL (≈ 1.5 µM)
  MIC90: 4 µg/mL (≈ 6 µM)
Pseudomonas aeruginosa [31]
  MIC50: 0.51 µg/mL (≈ 0.765 µM)
  MIC90: 1 µg/mL (≈ 1.5 µM)
Pseudomonas aeruginosa [32]
  MIC50: 1 µg/mL (≈ 1.5 µM)
  MIC90: 8 µg/mL (≈ 12 µM)
Pseudomonas aeruginosa [33]
  MIC50: 1 µg/mL (≈ 1.5 µM)
  MIC90: 4 µg/mL (≈ 6 µM)
Pseudomonas aeruginosa [34]
  MIC50: 1 µg/mL (≈ 1.5 µM)
  MIC90: 4 µg/mL (≈ 6 µM)
Pseudomonas aeruginosa [35]
  MIC: 64 µg/mL (≈ 96 µM)
Pseudomonas aeruginosa [36]
  MIC50: 1 µg/mL (≈ 1.5 µM)
  MIC90: 2 µg/mL (≈ 3 µM)
Pseudomonas aeruginosa [37]
  MIC50: 1 µg/mL (≈ 1.5 µM)
  MIC90: 4 µg/mL (≈ 6 µM)
Pseudomonas aeruginosa [38]
  MIC: 0.5 µg/mL (≈ 0.75 µM)
Pseudomonas aeruginosa [39]
  MIC: 32 µg/mL (≈ 48 µM)
Pseudomonas aeruginosa [40]
  MIC50: 1 µg/mL (≈ 1.5 µM)
  MIC90: 4 µg/mL (≈ 6 µM)
Pseudomonas aeruginosa [41]
  MIC50: 1 µg/mL (≈ 1.5 µM)
  MIC90: 2 µg/mL (≈ 3 µM)
Pseudomonas aeruginosa [42]
  MIC: 64 µg/mL (≈ 96 µM)
Pseudomonas aeruginosa [43]
  MIC50: 1 µg/mL (≈ 1.5 µM)
  MIC90: 4 µg/mL (≈ 6 µM)
Pseudomonas aeruginosa [44]
  MIC: 32 µg/mL (≈ 48 µM)
Pseudomonas aeruginosa [45]
  MIC50: 1 µg/mL (≈ 1.5 µM)
  MIC90: 2 µg/mL (≈ 3 µM)
Pseudomonas aeruginosa [46]
  MIC50: 1 µg/mL (≈ 1.5 µM)
  MIC90: 4 µg/mL (≈ 6 µM)
Pseudomonas aeruginosa [47]
  MIC50: 1 µg/mL (≈ 1.5 µM)
  MIC90: 2 µg/mL (≈ 3 µM)
